Assay results published in patent US10070646B2, “Tetrazolinone compound and application thereof” (SUMITOMO CHEMICAL COMPANY, LIMITED, priority 2014, dated 2018).

Columns and labels:
Format in all cases: in vivo
[1] = test system: kidney bean stem rot fungus (Sclerotinia sclerotiorum); assay: Test Example 2: kidney bean stem rot foliar spray test; conditions: 500 ppm sprayed on kidney bean (NAGAUZURA SAITOU); hyphae-containing PDA medium placed on leaves after air-drying; assessed four days after inoculation
Text: Each of plastic pots was filled with soil and kidney bean (cultivar: NAGAUZURA SAITOU) was sowed and grown in a greenhouse for 8 days. Then, each water dilution prepared by adjusting so as to contain a predetermined concentration (500 ppm) of the present compound 1 was sprayed over stems and leaves of the kidney bean so that it sufficiently adhered to the surface of the leaves of the kidney bean. After spraying, the plant was air-dried and a PDA medium containing hyphae of the kidney bean stem rot fungus (Sclerotinia sclerotiorum) was placed on the leaves of the kidney bean. After the inoculation, all kidney beans were placed under high humidity condition only at night. Four days after the inoculation, the area of lesion was investigated. As a result, the area of lesion on the plant treated with the present compound was 30% or less of that on an untreated plant.

[2] = test system: barley net blotch fungus (Pyrenophora teres); assay: Test Example 1: barley net blotch preventive foliar spray test; conditions: 500 ppm sprayed on barley (MIKAMO GOLDEN) stems and leaves; spores inoculated after 2 days; 3 days high humidity then 7 days in greenhouse
Text: (§1) Each of plastic pots was filled with soil and barley (cultivar: MIKAMO GOLDEN) was sowed and grown in a greenhouse for 7 days. Then, each water dilution prepared by adjusting so as to contain a predetermined concentration (500 ppm) of the present compound 1 was sprayed over stems and leaves of the barley so that it sufficiently adhered to the surface of the leaves of the barley. After spraying, the plant was air-dried. After 2 days, an aqueous suspension containing spores of barley net blotch fungus (Pyrenophora teres) was sprayed to inoculate the spores. After completion of the inoculation, the plant was placed for 3 days in a greenhouse at 23° C. in the daytime and 20° C. at night under high humidity condition and cultivated in a greenhouse for 7 days, and then the area of lesion was investigated. As a result, the area of lesion on the plant treated with of the present compound was 30% or less of that on an untreated plant.

[3] = test system: cucumber downy mildew fungus (Pseudoperonospora cubensis); assay: Test Example 8: cucumber downy mildew preventive foliar spray test; conditions: 200 ppm sprayed on cucumber (SAGAMI HANJIRO); zoospores inoculated after 1 day; one day high humidity then 6 days in greenhouse
Text: (§2) Each of plastic pots was filled with soil and cucumber (cultivar: SAGAMI HANJIRO) was sowed and grown in a greenhouse for 19 days. Then, each water dilution prepared by adjusting so as to contain a predetermined concentration (200 ppm) of the present compound 1 was sprayed over stems and leaves of the cucumber so that it sufficiently adhered to the surface of the leaves of the cucumber. After spraying, the plant was air-dried and then, after 1 day, an aqueous suspension containing zoospores of cucumber downy mildew fungus (Pseudoperonospora cubensis) was sprayed to inoculate the zoospores. After the inoculation, the plant was placed stand at 23° C. for one day under high humidity condition, and then cultivated in a greenhouse at 24° C. in the daytime and 20° C. at night for 6 days, and then the area of lesion was investigated. As a result, the area of lesion on the plant treated with the present compound was 30% or less of that on an untreated plant.

[4] = test system: cucumber powdery mildew fungus (Sphaerotheca fuliginea, a QoI-resistant strain); assay: Test Example 4: cucumber powdery mildew (QoI-resistant strain) foliar spray test; conditions: 500 ppm sprayed on cucumber (SAGAMI HANJIRO), cytochrome b position 143 glycine to alanine, assessed after 8 days
Text: Each of plastic pots was filled with soil and cucumber (cultivar: SAGAMI HANJIRO) was sowed and grown in a greenhouse for 12 days. Then, each water dilution prepared by adjusting so as to contain a predetermined concentration (500 ppm) of the present compound 1 was sprayed over stems and leaves of the cucumber so that it sufficiently adhered to the surface of the leaves of the cucumber. After spraying, the plant was air-dried and then inoculated by sprinkling with spores of cucumber powdery mildew fungus (Sphaerotheca fuliginea, a QoI-resistant strain in which, among the genes encoding cytochrome b, the amino acid residue at position 143 of cytochrome b is mutated from glycine to alanine). After the inoculation, the plant was cultivated in a greenhouse at 24° C. in the daytime and 20° C. at night for 8 days, and then the area of lesion was investigated. As a result, the area of lesion on the plant treated with the present compound was 30% or less of that on an untreated plant.

[5] = test system: cucumber anthracnose fungus (Colletotrichum lagenarium); assay: Test Example 7: cucumber anthracnose preventive foliar spray test; conditions: 50 ppm sprayed on cucumber (SAGAMI HANJIRO); spores inoculated after 1 day; one day high humidity then 6 days in greenhouse
Text: as §2, with “(50” for “(200”, “spores” for “zoospores”, “anthracnose” for “downy mildew”, “(Colletotrichum lagenarium)” for “(Pseudoperonospora cubensis)”, “spores.” for “zoospores.”, “placed” for “placed stand”

[6] = test system: wheat leaf blotch fungus (Septoria tritici); assay: Test Example 3: wheat leaf blotch preventive foliar spray test; conditions: 500 ppm sprayed on wheat (APOGEE); spores inoculated after 4 days; 3 days at 18° C. high humidity then 14 to 18 days under illumination
Text: Each of plastic pots was filled with soil and wheat (cultivar: APOGEE) was sowed and grown in a greenhouse for 10 days. Then, each water dilution prepared by adjusting so as to contain a predetermined concentration (500 ppm) of the present compound 1 was sprayed over stems and leaves of the wheat so that it sufficiently adhered to the surface of the leaves of the wheat. After spraying, the plant was air-dried. After 4 days, an aqueous suspension containing spores of wheat leaf blotch fungus (Septoria tritici) was sprayed over the wheat to inoculate the spores. After completion of the inoculation, the plant was placed at 18° C. under high humidity condition for 3 days and then placed under illumination for 14 to 18 days, and then the area of lesion was investigated. As a result, the area of lesion on the plant treated with the present compound was 30% or less of that on an untreated plant.

[7] = test system: wheat rust fungus (Puccinia recondita); assay: Test Example 5: wheat rust preventive foliar spray test; conditions: 200 ppm sprayed on wheat (SHIROGANE); spores inoculated after 5 days; one day dark high humidity then 8 days under illumination
Method: Each of plastic pots was filled with soil and wheat (cultivar: SHIROGANE) was sowed and grown in a greenhouse for 9 days. Then, each water dilution prepared by adjusting so as to contain a predetermined concentration (200 ppm) of the present compound 1 was sprayed over stems and leaves of the wheat so that it sufficiently adhered to the surface of the leaves of the wheat. After spraying, the plant was air-dried and cultivated at 20° C. for 5 days under illumination, and then inoculated by sprinkling with spores of wheat rust fungus (Puccinia recondita). After the inoculation, the plant was placed at 23° C. for one day under dark and high humidity condition, and cultivated under illumination at 20° C. for 8 days, and then the area of lesion was investigated. As a result, the area of lesion on the plant treated with the present compound was 30% or less of that on an untreated plant.

[8] = test system: barley scald fungus (Rhynchosporium secalis); assay: Test Example 6: barley scald preventive foliar spray test; conditions: 200 ppm sprayed on barley (MIKAMO GOLDEN); spores inoculated after 2 days; 3 days high humidity then 7 days in greenhouse
Text: as §1, with “(200” for “(500”, “scald” for “net blotch”, “(Rhynchosporium secalis)” for “(Pyrenophora teres)”

Measured: area of lesion on the treated plant relative to that on an untreated plant

Cc1cccc(-n2nnn(C)c2=O)c1CSc1ccn(-c2ccc(Cl)cc2)n1 [present compound 1, 1-(2-{[1-(4-chlorophenyl)-1H-pyrazol-3-yl]thiomethyl}-3-methy1phenyl)-4-methyl-1,4-dihydrotetrazol-5-one]
≤ 30%: all assays above
